In ChEMBL document CHEMBL3526033, “Identification of human liver cytochrome P450 enzymes involved in the metabolism of SCH 530348 (Vorapaxar), a potent oral thrombin protease-activated receptor 1 antagonist” (Drug Metab Dispos, 2011):

What was measured:
Cytochrome P450 2B6 = molecular target: T1, Cytochrome P450 2B6 (Homo sapiens, UniProt P20813); assay: Activity of human recombinant CYP2B6 assessed as enzyme-mediated drug metabolism treated with 25 uM vorapaxar after 120 mins by LC-MS/MS analysis in presence of NADPH; assay type: ADME; settings: 2 h
T1 sequence (P20813 whole entry): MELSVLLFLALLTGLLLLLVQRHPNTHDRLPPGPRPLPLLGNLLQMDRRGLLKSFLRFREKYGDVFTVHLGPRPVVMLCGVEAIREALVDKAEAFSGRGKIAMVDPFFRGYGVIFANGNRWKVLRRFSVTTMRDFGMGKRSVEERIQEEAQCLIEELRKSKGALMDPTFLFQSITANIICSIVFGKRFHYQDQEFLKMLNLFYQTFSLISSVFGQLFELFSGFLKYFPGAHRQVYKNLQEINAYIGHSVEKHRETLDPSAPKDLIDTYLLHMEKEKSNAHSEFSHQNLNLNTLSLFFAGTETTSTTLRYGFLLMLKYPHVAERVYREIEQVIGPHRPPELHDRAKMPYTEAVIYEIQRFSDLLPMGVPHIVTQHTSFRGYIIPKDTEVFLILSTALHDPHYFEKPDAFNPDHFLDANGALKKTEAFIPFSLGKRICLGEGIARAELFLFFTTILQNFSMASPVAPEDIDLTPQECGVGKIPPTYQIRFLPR

Cytochrome P450 2C18 = Cytochrome P450 2C18 (Homo sapiens, UniProt P33260); assay: Activity of human recombinant CYP2C18 assessed as enzyme-mediated drug metabolism treated with 25 uM vorapaxar after 120 mins by LC-MS/MS analysis in presence of NADPH; assay type: ADME; settings: 2 h
Liver microsome [1] = assay: Drug metabolism in human liver microsomes assessed as 2-hydroxyethyl (1R,3aR,4aR,6R,8aR,9S,9aS)-9-((E)-2-(5-(3-fluorophenyl)pyridin-2-yl)vinyl)-1-methyl-3-oxododecahydronaphtho[2,3-c]furan-6-ylcarbamate formation at 25 uM after 120 mins by LC-MS/MS analysis in presence of CYP3A4-specific inhibitory monoclonal antibody; assay type: ADME; settings: 2 h
CYP3A5 = CYP3A5 (Homo sapiens, UniProt P20815); assay: Activity of human recombinant CYP3A5 assessed as enzyme-mediated drug metabolism at 10 uM after 120 mins by LC-MS/MS analysis in presence of NADPH; assay type: ADME; settings: read-out: Compound recovery
Liver microsome [2] = assay: Drug metabolism in human liver microsomes assessed as 2-hydroxyethyl (1R,3aR,4aR,6R,8aR,9S,9aS)-9-((E)-2-(5-(3-fluorophenyl)pyridin-2-yl)vinyl)-1-methyl-3-oxododecahydronaphtho[2,3-c]furan-6-ylcarbamate formation at 25 uM after 120 mins by LC-MS/MS analysis in presence of NADPH; assay type: ADME; settings: 2 h
Liver microsome [3] = assay: Drug metabolism in human liver microsomes assessed as (3R,3aS,4S,4aR,7R,8aR,9aR)-7-amino-4-((E)-2-(5-(3-fluorophenyl)pyridin-2-yl)vinyl)-3-methyldecahydronaphtho[2,3-c]furan-1(3H)-one formation at 10 to 25 uM after 120 mins by LC-MS/MS analysis in presence of orphenadrine; assay type: ADME; settings: 2 h
Liver microsome [4] = assay: Drug metabolism in human liver microsomes assessed as (3R,3aS,4S,4aR,7R,8aR,9aR)-7-amino-4-((E)-2-(5-(3-fluorophenyl)pyridin-2-yl)vinyl)-3-methyldecahydronaphtho[2,3-c]furan-1(3H)-one formation at 10 to 25 uM after 120 mins by LC-MS/MS analysis in presence of CYP3A4-specific inhibitory monoclonal antibody; assay type: ADME; settings: 2 h
Liver microsome [5] = assay: Drug metabolism in human liver microsomes assessed as (3R,3aS,4S,4aR,7R,8aR,9aR)-7-amino-4-((E)-2-(5-(3-fluorophenyl)pyridin-2-yl)vinyl)-3-methyldecahydronaphtho[2,3-c]furan-1(3H)-one formation at 10 to 25 uM after 120 mins by LC-MS/MS analysis in presence of alpha-napthoflavone; assay type: ADME; settings: 2 h
CYP2D6 = CYP2D6 (Homo sapiens, UniProt P10635); assay: Activity of human recombinant CYP2D6 assessed as enzyme-mediated drug metabolism at 10 uM after 120 mins by LC-MS/MS analysis in presence of NADPH; assay type: ADME; settings: read-out: Compound recovery
[6] = Drug metabolism in human lung microsomes assessed as 2-hydroxyethyl (1R,3aR,4aR,6R,8aR,9S,9aS)-9-((E)-2-(5-(3-fluorophenyl)pyridin-2-yl)vinyl)-1-methyl-3-oxododecahydronaphtho[2,3-c]furan-6-ylcarbamate formation at 25 uM after 120 mins by LC-MS/MS analysis in presence of NADPH; assay type: ADME, microsome; settings: 2 h
Cytochrome P450 2D6 = Cytochrome P450 2D6 (Homo sapiens, UniProt P10635); assay: Activity of human recombinant CYP2D6 assessed as enzyme-mediated 2-hydroxyethyl (1R,3aR,4aR,6R,8aR,9S,9aS)-9-((E)-2-(5-(3-fluorophenyl)pyridin-2-yl)vinyl)-1-methyl-3-oxododecahydronaphtho[2,3-c]furan-6-ylcarbamate formation at 25 uM after 120 mins by LC-MS/MS analysis in presence of NADPH; assay type: ADME; settings: 2 h
Cytochrome P450 4F12 = Cytochrome P450 4F12 (Homo sapiens, UniProt Q9HCS2); assay: Activity of human recombinant CYP4F12 assessed as enzyme-mediated 2-hydroxyethyl (1R,3aR,4aR,6R,8aR,9S,9aS)-9-((E)-2-(5-(3-fluorophenyl)pyridin-2-yl)vinyl)-1-methyl-3-oxododecahydronaphtho[2,3-c]furan-6-ylcarbamate formation at 25 uM after 120 mins by LC-MS/MS analysis in presence of NADPH; assay type: ADME; settings: 2 h
Cytochrome P450 2C19 = Cytochrome P450 2C19 (Homo sapiens, UniProt P33261); assay: Activity of human recombinant CYP2C19 assessed as enzyme-mediated 2-hydroxyethyl (1R,3aR,4aR,6R,8aR,9S,9aS)-9-((E)-2-(5-(3-fluorophenyl)pyridin-2-yl)vinyl)-1-methyl-3-oxododecahydronaphtho[2,3-c]furan-6-ylcarbamate formation at 25 uM after 120 mins by LC-MS/MS analysis in presence of NADPH; assay type: ADME; settings: 2 h
Cytochrome P450 3A5 = Cytochrome P450 3A5 (Homo sapiens, UniProt P20815); assay: Activity of human recombinant CYP3A5 assessed as enzyme-mediated drug metabolism at 10 uM after 120 mins by LC-MS/MS analysis; assay type: ADME; settings: 2 h
Cytochrome P450 1A2 = molecular target: T2, Cytochrome P450 1A2 (Homo sapiens, UniProt P05177); assay: Activity of human recombinant CYP1A2 assessed as enzyme-mediated 2-hydroxyethyl (1R,3aR,4aR,6R,8aR,9S,9aS)-9-((E)-2-(5-(3-fluorophenyl)pyridin-2-yl)vinyl)-1-methyl-3-oxododecahydronaphtho[2,3-c]furan-6-ylcarbamate formation at 25 uM after 120 mins by LC-MS/MS analysis in presence of NADPH; assay type: ADME; settings: 2 h
T2 sequence (P05177 whole entry): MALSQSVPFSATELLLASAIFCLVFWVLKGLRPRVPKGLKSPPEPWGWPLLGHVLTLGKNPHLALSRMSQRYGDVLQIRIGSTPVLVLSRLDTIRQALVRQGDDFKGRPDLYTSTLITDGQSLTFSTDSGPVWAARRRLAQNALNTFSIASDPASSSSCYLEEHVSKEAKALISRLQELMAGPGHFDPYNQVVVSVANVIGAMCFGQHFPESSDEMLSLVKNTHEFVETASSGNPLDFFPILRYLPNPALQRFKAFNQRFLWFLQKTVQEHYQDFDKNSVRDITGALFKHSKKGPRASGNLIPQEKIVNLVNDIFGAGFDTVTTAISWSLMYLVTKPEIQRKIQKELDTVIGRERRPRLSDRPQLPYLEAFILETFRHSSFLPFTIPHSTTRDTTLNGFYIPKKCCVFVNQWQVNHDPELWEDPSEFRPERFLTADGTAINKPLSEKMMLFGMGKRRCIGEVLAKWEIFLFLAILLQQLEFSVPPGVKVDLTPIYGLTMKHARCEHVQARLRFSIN

Chain of Cytochrome P450 2D6 (P10635 whole entry): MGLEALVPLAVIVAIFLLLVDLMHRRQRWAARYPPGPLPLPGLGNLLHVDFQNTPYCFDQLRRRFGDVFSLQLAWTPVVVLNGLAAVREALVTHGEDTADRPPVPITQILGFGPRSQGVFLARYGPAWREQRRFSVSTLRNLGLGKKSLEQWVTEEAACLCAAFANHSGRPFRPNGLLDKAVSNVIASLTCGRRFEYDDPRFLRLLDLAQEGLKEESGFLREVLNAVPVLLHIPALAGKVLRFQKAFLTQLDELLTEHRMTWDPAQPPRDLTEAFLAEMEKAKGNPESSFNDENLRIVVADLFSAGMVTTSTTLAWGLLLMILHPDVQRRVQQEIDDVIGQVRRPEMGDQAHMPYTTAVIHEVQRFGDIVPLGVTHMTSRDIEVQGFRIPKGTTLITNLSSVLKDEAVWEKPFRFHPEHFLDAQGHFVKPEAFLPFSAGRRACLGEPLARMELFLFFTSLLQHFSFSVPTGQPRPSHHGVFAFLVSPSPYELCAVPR
Chain of CYP2D6 (P10635 whole entry): as above
Chain of Cytochrome P450 4F12 (Q9HCS2 whole entry): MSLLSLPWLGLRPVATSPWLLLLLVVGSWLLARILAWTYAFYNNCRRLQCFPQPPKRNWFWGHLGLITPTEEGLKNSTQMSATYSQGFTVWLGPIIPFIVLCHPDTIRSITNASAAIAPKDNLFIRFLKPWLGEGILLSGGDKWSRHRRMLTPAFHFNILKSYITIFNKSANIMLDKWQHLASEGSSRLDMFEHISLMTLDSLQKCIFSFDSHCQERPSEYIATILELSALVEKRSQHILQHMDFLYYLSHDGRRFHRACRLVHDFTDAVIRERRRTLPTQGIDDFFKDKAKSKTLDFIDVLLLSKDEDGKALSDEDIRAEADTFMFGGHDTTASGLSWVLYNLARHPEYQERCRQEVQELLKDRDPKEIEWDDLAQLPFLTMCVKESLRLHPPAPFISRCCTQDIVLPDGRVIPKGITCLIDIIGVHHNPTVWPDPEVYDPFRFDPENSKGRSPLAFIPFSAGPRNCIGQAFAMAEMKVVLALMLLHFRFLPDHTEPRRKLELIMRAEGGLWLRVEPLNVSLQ
Chain of Cytochrome P450 2C19 (P33261 whole entry): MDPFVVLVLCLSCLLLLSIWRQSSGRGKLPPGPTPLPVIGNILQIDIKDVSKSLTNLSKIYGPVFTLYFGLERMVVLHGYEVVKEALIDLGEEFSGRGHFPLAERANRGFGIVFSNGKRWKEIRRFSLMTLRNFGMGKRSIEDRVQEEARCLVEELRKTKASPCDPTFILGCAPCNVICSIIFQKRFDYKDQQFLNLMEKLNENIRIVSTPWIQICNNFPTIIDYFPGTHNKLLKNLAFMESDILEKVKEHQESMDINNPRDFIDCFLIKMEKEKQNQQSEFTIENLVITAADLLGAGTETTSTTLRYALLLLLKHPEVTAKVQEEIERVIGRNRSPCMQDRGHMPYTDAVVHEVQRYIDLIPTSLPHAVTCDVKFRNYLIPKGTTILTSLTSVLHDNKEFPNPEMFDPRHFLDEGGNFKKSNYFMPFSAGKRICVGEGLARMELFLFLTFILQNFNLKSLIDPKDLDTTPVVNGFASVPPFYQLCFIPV
Chain of CYP3A5 (P20815 whole entry): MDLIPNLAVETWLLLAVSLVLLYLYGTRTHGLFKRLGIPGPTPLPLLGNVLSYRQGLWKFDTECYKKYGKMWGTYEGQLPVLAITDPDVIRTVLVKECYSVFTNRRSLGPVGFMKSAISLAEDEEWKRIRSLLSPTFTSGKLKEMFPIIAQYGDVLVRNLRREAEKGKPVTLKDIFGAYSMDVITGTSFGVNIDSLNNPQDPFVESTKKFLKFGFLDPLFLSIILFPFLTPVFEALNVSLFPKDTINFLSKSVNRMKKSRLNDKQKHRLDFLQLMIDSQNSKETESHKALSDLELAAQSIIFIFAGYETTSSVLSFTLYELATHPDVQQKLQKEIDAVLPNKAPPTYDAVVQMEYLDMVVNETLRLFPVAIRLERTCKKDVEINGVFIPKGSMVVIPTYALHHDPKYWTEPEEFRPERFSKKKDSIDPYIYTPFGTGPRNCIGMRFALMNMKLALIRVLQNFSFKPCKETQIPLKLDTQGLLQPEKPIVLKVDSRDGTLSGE
Chain of Cytochrome P450 3A5 (P20815 whole entry): as above
Chain of Cytochrome P450 2C18 (P33260 whole entry): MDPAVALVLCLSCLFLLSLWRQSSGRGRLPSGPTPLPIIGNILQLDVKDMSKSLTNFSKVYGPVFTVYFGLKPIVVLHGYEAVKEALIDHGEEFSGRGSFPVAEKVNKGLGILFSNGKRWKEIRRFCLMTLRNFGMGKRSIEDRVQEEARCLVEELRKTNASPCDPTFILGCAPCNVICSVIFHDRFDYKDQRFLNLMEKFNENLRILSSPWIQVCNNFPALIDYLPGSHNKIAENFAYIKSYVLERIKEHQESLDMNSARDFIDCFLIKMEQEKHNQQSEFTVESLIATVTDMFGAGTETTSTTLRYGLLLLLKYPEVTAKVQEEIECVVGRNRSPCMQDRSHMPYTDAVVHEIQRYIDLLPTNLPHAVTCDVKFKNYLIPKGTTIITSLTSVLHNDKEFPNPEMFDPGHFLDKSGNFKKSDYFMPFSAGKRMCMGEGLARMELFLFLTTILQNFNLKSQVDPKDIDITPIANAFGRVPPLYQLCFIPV

Compound: C[C@H]1OC(=O)[C@@H]2C[C@@H]3C[C@H](NC(=O)OCCO)CC[C@H]3[C@H](/C=C/c3ccc(-c4cccc(F)c4)cn3)[C@H]12
- Drug metabolism (Cytochrome P450 2B6): metabolite_detected
- Drug metabolism (Cytochrome P450 2C18): metabolite_detected

Compound: CCOC(=O)N[C@@H]1CC[C@@H]2[C@@H](C1)C[C@H]1C(=O)O[C@H](C)[C@H]1[C@H]2/C=C/c1ccc(-c2cccc(F)c2)cn1 [VORAPAXAR]
- Drug metabolism (Liver microsome [1]): metabolite_not_detected
- remaining at 2 h, 10 µM (CYP3A5): 93.9%
- Vmax (Liver microsome [2]): 0.4 pmol/min
- Drug metabolism (Liver microsome [3]): metabolite_not_detected
- Drug metabolism (Liver microsome [4]): metabolite_not_detected
- Drug metabolism (Liver microsome [5]): metabolite_detected
- remaining at 2 h, 10 µM (CYP2D6): 98.1%
- Drug metabolism [6]: metabolite_detected

Compound: CCOC(=O)N[C@@H]1CC[C@@H]2[C@@H](C1)C[C@H]1C(=O)O[C@H](C)[C@H]1[C@H]2/C=[14CH]/c1ccc(-c2cccc(F)c2)cn1
- Drug metabolism (Cytochrome P450 2D6): metabolite_detected
- Drug metabolism (Cytochrome P450 4F12): metabolite_detected
- Drug metabolism (Cytochrome P450 2C19): metabolite_detected
- Drug metabolism (Cytochrome P450 3A5): metabolite_not_detected
- Drug metabolism (Cytochrome P450 1A2): metabolite_detected
